Experimental data published in patent US8987267B2, “2-substituted-8-alkyl-7-OXO-7,8-dihydropyrido[2,3-D]pyrimidine-6-carbonitriles and uses thereof in treating proliferative disorders” (Temple University—of the Commonwealth System of Higher …, priority 2010, dated 2015).

What was measured:
Assay type in all cases: biochemical
[1] = target: T1, His-tagged full length ARK5 (Homo sapiens, UniProt O60285); assay: ARK5 Kinase Assay (ARK5 Inhibition Assay); conditions: CHKtide substrate, 1 μM ATP
T1 construct: 20 ng His-tagged full length ARK5 (Invitrogen PV4127); His; purchased Invitrogen PV4127
T1 sequence (O60285 1-661): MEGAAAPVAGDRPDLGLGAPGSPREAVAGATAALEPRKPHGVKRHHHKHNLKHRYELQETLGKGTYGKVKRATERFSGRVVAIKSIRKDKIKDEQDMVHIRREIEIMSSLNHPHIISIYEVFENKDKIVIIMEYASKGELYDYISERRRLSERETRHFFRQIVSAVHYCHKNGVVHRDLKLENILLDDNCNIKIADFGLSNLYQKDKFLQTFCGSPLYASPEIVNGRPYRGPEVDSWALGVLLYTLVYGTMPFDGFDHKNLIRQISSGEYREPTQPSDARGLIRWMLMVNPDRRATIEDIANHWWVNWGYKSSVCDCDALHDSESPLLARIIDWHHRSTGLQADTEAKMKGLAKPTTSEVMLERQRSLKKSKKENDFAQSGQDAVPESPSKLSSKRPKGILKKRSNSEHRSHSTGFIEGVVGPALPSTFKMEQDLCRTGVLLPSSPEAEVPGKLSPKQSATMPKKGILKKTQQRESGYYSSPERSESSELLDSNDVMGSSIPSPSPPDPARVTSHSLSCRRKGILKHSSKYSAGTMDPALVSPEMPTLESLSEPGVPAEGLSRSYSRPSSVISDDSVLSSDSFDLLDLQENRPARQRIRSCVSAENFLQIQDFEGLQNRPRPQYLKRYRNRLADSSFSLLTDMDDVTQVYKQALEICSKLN
Method: 20 ng His-tagged full length ARK5 (Invitrogen PV4127), a protein kinase, was diluted into kinase buffer (25 mM HEPES pH 7.5, 10 mM MgCl2, 0.5 mM EGTA, 0.5 mM Na3V04, 5 mM β Glycerophosphate, 2.5 mM DTT, 0.01% Triton X-100) and incubated with the indicated concentration of a compound of Table 3 at room temperature for 30 minutes. The kinase reactions were then initiated by the addition of 1 μg (3.28 μM) CHKtide substrate peptide (Upstate 12-414), 1 μM ATP and 10 μCi γ^32 P-ATP. The reactions were incubated at 30° C. for 10 minutes.
Subsequently, the reactions were stopped by adding 3% phosphoric acid. A 10 μl aliquot was then transferred to an appropriate area of a p30 filtermat. The filtermat was allowed to dry for 20 minutes at room temperature and then washed three times with 75 mM phosphoric acid and twice with methanol. The filtermat was then dried for 20 minutes at room temperature. The filtermat was then exposed to X ray film or read in a scintillation counter. The scintillation counting values were plotted as function of log drug concentration using Prism 4 Graph pad software and IC50 values determined by plotting sigmoidal non-linear regression curves with variable slope.

CDK2/cyclinA = CDK2/cyclinA (Homo sapiens, UniProt P24941); assay: Kinase inhibition panel; conditions: 10 μM ATP
Method: (§1) The compounds in Table 4 were tested for the ability to inhibit the kinase activity of the listed protein kinases.

CDK5/p25 = CDK5/p25 (Homo sapiens, UniProt Q00535); assay: Kinase inhibition panel; conditions: 10 μM ATP
Method: as §1

EphB4 = EphB4 (Homo sapiens, UniProt P54760); assay: Kinase inhibition panel; conditions: 10 μM ATP
Sequence of EphB4 (P54760 16-987, species assumed): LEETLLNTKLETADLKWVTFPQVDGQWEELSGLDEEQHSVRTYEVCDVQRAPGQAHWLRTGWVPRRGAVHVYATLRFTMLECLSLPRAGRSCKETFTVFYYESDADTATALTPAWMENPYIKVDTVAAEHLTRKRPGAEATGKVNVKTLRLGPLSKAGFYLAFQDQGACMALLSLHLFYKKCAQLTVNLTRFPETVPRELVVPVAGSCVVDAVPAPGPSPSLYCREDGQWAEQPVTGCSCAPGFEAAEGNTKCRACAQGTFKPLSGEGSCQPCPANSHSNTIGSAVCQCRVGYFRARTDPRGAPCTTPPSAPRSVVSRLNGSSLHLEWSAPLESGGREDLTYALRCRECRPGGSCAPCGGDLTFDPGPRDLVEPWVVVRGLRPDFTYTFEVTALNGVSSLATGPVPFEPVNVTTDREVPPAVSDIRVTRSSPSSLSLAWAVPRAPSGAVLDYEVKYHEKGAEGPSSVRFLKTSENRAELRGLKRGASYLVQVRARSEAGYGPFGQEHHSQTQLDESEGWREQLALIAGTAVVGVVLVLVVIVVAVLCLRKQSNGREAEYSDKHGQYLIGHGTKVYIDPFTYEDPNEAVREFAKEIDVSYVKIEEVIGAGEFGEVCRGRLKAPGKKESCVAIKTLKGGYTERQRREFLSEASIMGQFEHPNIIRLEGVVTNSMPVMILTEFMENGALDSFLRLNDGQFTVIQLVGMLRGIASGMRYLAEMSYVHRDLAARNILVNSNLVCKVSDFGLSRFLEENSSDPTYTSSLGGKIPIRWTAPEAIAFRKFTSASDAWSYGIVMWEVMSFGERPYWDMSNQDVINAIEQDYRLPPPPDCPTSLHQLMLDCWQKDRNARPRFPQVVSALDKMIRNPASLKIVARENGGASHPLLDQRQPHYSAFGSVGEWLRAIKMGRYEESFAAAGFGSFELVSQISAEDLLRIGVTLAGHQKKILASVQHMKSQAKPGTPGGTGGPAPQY
Method: as §1

FGFR1 = FGFR1 (Homo sapiens, UniProt P11362); assay: Kinase inhibition panel; conditions: 10 μM ATP
Method: as §1

FMS = FMS (Homo sapiens, UniProt P07333); assay: Kinase inhibition panel; conditions: 10 μM ATP
Method: as §1

PAK3 = PAK3 (Homo sapiens, UniProt O75914); assay: Kinase inhibition panel; conditions: 10 μM ATP
Method: as §1

TGFbR2 = TGFbR2 (Homo sapiens, UniProt P37173); assay: Kinase inhibition panel; conditions: 10 μM ATP
Method: as §1

c-Src = c-Src (Homo sapiens, UniProt P12931); assay: Kinase inhibition panel; conditions: 10 μM ATP
Method: as §1

c-Kit = c-Kit (Homo sapiens, UniProt P10721); assay: Kinase inhibition panel; conditions: 10 μM ATP
CDK4/Cyclin D3 = CDK4/Cyclin D3 (Homo sapiens, UniProt P11802); assay: Kinase inhibition panel; conditions: 10 μM ATP
Sequence of CDK4/Cyclin D3 (P11802 whole entry, species assumed): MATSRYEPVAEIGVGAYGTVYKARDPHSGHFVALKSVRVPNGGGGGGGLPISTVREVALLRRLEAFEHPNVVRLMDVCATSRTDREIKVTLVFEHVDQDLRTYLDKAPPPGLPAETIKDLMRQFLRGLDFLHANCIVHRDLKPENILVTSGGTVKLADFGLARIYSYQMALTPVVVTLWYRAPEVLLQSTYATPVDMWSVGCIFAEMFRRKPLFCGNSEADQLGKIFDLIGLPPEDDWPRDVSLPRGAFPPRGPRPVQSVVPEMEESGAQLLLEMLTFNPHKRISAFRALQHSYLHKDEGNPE
Sequence of CDK4/Cyclin D3 (P30281 whole entry partner, species assumed): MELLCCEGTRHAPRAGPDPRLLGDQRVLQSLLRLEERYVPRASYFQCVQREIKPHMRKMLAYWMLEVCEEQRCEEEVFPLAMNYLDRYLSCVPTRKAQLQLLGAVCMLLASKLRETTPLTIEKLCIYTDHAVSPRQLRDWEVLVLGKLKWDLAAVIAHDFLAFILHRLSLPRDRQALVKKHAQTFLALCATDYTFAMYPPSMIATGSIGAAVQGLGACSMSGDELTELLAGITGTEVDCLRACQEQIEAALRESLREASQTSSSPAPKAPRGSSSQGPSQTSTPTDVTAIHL

CDK6/cyclinD3 = CDK6/cyclinD3 (Homo sapiens, UniProt Q00534); assay: Kinase inhibition panel; conditions: 10 μM ATP
Sequence of CDK6/cyclinD3 (Q00534 whole entry, species assumed): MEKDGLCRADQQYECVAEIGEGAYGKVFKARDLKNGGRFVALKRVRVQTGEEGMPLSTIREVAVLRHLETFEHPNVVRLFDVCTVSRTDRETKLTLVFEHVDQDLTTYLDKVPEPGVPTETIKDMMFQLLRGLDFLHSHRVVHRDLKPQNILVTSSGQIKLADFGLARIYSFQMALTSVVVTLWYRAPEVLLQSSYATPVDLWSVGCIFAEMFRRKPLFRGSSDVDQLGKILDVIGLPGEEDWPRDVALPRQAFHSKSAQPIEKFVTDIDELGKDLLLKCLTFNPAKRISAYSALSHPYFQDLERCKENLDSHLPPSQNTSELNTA
Sequence of CDK6/cyclinD3 (P30281 whole entry partner, species assumed): as the sequence (P30281 whole entry partner, species assumed) above

CDK7/cyclinH/MNAT1 = CDK7/cyclinH/MNAT1 (Homo sapiens, UniProt P50613); assay: Kinase inhibition panel; conditions: 10 μM ATP
EPHA2 = EPHA2 (Homo sapiens, UniProt P29317); assay: Kinase inhibition panel; conditions: 10 μM ATP
Sequence of EPHA2 (P29317 24-976, species assumed): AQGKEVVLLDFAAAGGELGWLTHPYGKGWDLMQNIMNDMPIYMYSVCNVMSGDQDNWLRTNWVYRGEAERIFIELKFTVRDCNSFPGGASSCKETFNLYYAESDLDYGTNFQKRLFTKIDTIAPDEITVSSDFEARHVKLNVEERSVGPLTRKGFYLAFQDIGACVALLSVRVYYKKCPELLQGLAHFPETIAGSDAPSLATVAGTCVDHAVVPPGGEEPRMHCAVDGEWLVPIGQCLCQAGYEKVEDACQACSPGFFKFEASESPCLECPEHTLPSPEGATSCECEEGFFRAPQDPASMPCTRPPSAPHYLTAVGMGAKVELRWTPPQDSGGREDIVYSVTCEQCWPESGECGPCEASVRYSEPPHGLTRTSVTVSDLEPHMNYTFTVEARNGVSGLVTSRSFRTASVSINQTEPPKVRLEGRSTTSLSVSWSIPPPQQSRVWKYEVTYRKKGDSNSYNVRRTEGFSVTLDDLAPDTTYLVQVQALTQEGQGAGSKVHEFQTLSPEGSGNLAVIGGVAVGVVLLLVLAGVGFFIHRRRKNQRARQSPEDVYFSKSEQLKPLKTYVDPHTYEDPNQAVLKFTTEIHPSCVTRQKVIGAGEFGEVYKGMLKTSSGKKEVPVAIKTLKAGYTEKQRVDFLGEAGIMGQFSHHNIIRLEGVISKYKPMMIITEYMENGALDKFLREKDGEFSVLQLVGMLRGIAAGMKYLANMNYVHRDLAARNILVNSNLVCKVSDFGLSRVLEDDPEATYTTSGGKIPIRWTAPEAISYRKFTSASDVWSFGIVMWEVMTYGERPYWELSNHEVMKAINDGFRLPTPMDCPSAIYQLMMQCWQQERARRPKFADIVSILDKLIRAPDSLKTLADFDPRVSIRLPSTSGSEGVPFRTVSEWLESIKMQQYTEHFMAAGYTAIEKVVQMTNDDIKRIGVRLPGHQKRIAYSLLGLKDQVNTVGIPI

EphB2/HEK5 = EphB2/HEK5 (Homo sapiens, UniProt P29323); assay: Kinase inhibition panel; conditions: 10 μM ATP
FGFR2 = FGFR2 (Homo sapiens, UniProt P21802); assay: Kinase inhibition panel; conditions: 10 μM ATP
FGFR4 = FGFR4 (Homo sapiens, UniProt P22455); assay: Kinase inhibition panel; conditions: 10 μM ATP
Sequence of FGFR4 (P22455 22-802, species assumed): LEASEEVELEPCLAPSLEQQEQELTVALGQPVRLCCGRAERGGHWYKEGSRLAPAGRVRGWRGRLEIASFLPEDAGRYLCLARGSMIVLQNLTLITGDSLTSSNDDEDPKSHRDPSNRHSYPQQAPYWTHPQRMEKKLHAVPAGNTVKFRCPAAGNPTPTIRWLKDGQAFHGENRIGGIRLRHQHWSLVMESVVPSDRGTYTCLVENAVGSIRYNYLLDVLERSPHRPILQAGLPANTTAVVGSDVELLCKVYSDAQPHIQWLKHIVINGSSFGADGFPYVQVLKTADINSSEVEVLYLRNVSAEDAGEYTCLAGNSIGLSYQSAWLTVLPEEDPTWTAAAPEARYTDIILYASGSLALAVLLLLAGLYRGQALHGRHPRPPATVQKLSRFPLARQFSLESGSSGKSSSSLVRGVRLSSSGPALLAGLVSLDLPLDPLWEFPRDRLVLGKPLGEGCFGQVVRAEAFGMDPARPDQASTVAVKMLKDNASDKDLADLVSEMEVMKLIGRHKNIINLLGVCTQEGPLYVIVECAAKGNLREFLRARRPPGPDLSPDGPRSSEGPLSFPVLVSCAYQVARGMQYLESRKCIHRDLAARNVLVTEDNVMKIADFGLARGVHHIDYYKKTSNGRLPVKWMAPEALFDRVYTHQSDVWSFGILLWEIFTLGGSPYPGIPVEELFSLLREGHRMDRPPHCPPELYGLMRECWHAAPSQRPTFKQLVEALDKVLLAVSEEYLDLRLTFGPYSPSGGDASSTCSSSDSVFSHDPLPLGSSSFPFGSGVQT

FGR = FGR (Homo sapiens, UniProt P09769); assay: Kinase inhibition panel; conditions: 10 μM ATP
FLT3 = FLT3 (Homo sapiens, UniProt P36888); assay: Kinase inhibition panel; conditions: 10 μM ATP
FLT4NEGFR3 = FLT4NEGFR3 (Homo sapiens, UniProt P35916); assay: Kinase inhibition panel; conditions: 10 μM ATP
FYN = FYN (Homo sapiens, UniProt P06241); assay: Kinase inhibition panel; conditions: 10 μM ATP
LYN = LYN (Homo sapiens, UniProt P07948); assay: Kinase inhibition panel; conditions: 10 μM ATP
Sequence of LYN (P07948 whole entry, species assumed): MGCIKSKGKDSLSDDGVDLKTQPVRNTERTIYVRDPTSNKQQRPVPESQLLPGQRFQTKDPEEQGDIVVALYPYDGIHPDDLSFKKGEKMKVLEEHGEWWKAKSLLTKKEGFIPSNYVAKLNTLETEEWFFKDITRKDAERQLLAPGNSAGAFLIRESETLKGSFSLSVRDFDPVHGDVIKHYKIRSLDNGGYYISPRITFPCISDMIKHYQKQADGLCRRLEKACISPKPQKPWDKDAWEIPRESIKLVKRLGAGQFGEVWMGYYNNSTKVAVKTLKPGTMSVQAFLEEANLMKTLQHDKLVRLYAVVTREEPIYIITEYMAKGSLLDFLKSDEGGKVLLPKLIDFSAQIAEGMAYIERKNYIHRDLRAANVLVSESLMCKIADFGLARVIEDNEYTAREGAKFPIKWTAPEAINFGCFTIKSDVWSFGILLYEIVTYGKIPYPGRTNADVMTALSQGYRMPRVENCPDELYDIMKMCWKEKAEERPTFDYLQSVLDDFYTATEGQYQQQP

NLK = NLK (Homo sapiens, UniProt Q9UBE8); assay: Kinase inhibition panel; conditions: 10 μM ATP
PDGFRb = PDGFRb (Homo sapiens, UniProt P09619); assay: Kinase inhibition panel; conditions: 10 μM ATP
TBK1 = TBK1 (Homo sapiens, UniProt Q9UHD2); assay: Kinase inhibition panel; conditions: 10 μM ATP
Sequence of TBK1 (Q9UHD2 whole entry, species assumed): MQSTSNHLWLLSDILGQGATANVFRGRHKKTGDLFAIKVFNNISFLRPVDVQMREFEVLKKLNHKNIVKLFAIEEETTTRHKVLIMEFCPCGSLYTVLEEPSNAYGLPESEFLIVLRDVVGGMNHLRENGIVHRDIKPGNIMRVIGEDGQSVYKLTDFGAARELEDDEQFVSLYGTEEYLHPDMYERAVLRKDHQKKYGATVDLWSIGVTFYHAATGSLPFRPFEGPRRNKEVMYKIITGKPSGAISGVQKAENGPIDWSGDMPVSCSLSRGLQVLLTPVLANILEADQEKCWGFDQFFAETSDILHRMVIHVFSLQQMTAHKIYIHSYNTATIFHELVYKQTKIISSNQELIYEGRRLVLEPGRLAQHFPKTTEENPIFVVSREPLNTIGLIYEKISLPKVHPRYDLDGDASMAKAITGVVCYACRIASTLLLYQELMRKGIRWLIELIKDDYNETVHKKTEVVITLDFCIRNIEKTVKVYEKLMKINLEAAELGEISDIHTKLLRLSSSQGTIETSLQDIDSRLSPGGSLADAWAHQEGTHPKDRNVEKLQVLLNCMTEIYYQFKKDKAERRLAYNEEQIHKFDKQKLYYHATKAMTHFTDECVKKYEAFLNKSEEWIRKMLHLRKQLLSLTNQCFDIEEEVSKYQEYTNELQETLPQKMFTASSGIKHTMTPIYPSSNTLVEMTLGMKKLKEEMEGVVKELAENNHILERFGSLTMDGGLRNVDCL

TTK = TTK (Homo sapiens, UniProt P33981); assay: Kinase inhibition panel; conditions: 10 μM ATP

IC50 [1]: 27.3 nM
IC50 (CDK2/cyclinA): 97.3 nM
IC50 (CDK5/p25): 264 nM
IC50 (EphB4): 120 nM
IC50 (FGFR1): 68.2 nM
IC50 (FMS): 1.46 nM
IC50 (PAK3): 1930 nM
IC50 (TGFbR2): 62.3 nM
IC50 (c-Src): 93 nM
IC50 (c-Kit): 408 nM
IC50 (CDK4/Cyclin D3): 21.2 nM
IC50 (CDK6/cyclinD3): 38.7 nM
IC50 (CDK7/cyclinH/MNAT1): > 10000 nM
IC50 (EPHA2): 114 nM
IC50 (EphB2/HEK5): 130 nM
IC50 (FGFR2): 54.8 nM
IC50 (FGFR4): 3550 nM
IC50 (FGR): 112 nM
IC50 (FLT3): 13.6 nM
IC50 (FLT4NEGFR3): 63.5 nM
IC50 (FYN): 26.6 nM
IC50 (LYN): 68.5 nM
IC50 (NLK): 45.3 nM
IC50 (PDGFRb): 2.64 nM
IC50 (TBK1): 71.8 nM
IC50 (TTK): 156 nM
SMILES: CN1CCN(c2ccc(Nc3ncc4cc(C#N)c(=O)n(C5CCCC5)c4n3)cc2)CC1 [Compound 12, 8-cyclopentyl-2-((4-(4-methylpiperazin-1-yl)phenyl)amino)-7-oxo-7,8-dihydropyrido[2,3-d]pyrimidine-6-carbonitrile]
